From ChEMBL document CHEMBL1151706, “Hetero-Diels-Alder reaction of 1,3-bis(trimethylsilyloxy)-1,3-butadienes with arylsulfonylcyanides. Synthesis and antimicrobial activity of 4-hydroxy-2-(arylsulfonyl)pyridines” (2008)
≈ marks a conversion by molar mass, not a printed value. Calls of active or inactive are those of the source. The calls are words filed in the database; no cut-off is given here.

Tests used:
Type in all cases: functional
[1] = test system: Escherichia coli; experiment: Antibacterial activity against Escherichia coli ATCC 11229 assessed as diameter of the inhibition zone at 1 uM/disk after 4 hrs by disk diffusion method
[2] = test system: Bacillus subtilis; experiment: Antibacterial activity against Bacillus subtilis ATCC 6051 assessed as diameter of the inhibition zone at 1 uM/disk after 4 hrs by disk diffusion method; settings: for zone of inhibition at 1 µM: ATCC 6051, 4 h, read-out: IZ
[3] = test system: Candida maltosa; experiment: Antifungal activity against Candida maltosa SBUG 700 assessed as diameter of the inhibition zone at 1 uM/disk by disk diffusion method
[4] = test system: Staphylococcus aureus; experiment: Antibacterial activity against Staphylococcus aureus ATCC 6538 assessed as diameter of the inhibition zone at 1 uM/disk after 4 hrs by disk diffusion method; settings: for zone of inhibition at 1 µM: ATCC 6538, 4 h, read-out: IZ
[5] = test system: Staphylococcus aureus; experiment: Antibacterial activity against Staphylococcus aureus ATCC 6538 by dilution assay
[6] = test system: Bacillus subtilis; experiment: Antibacterial activity against Bacillus subtilis ATCC 6051 by dilution assay

With `CCOc1nc(S(=O)(=O)c2ccc(C)cc2)cc(O)c1F` the Activity [1] was “inactive”, the zone of inhibition at 1 µM [2] was 11 mm and the Activity [3] was “inactive”. For the same molecule, the Activity [4] was “inactive”.

For `CCOc1nc(S(=O)(=O)c2ccc(C)cc2)cc(O)c1Cl`, the Activity [1] was “inactive”, the MIC [5] was 1530 µM (≈ 502 µg/mL) and the zone of inhibition at 1 µM [2] was 10 mm. The zone of inhibition at 1 µM ([3]; read-out: IZ) was 9 mm, the MIC [6] was 1520 µM (≈ 498 µg/mL) and the zone of inhibition at 1 µM [4] was 13 mm.

`CCOc1nc(S(=O)(=O)c2ccc(C)cc2)cc(O)c1Oc1cc(C)cc(C)c1` was tested, and the Activity [1] was “inactive”, the Activity [2] was “inactive” and the Activity [3] was “inactive”. It also gave a zone of inhibition at 1 µM [4] of 8 mm.

With `CC(C)Oc1cc(O)cc(S(=O)(=O)c2ccccc2)n1` the Activity [1] was “inactive”, the Activity [2] was “inactive” and the Activity [3] was “inactive”. The Activity [4] was “inactive”.

In the case of `CCOc1nc(S(=O)(=O)c2ccccc2)cc(O)c1F`, the Activity [1] was “inactive”, the MIC [5] was 3360 µM (≈ 999 µg/mL) and the zone of inhibition at 1 µM [2] was 11 mm. For the same molecule, the Activity [3] was “inactive”, the MIC [6] was 1680 µM (≈ 499 µg/mL) and the zone of inhibition at 1 µM [4] was 12 mm.

With `CCOc1cc(O)cc(S(=O)(=O)c2ccccc2)n1` the Activity [1] was “inactive”, the Activity [2] was “inactive” and the Activity [3] was “inactive”. For the same molecule, the Activity [4] was “inactive”.

For `COc1nc(S(=O)(=O)c2ccccc2)cc(O)c1Sc1ccccc1`, the Activity [1] was “inactive”, the zone of inhibition at 1 µM [2] was 10 mm and the Activity [3] was “inactive”. For the same molecule, the Activity [4] was “inactive”.

For `Cc1cccc(Sc2c(O)cc(S(=O)(=O)c3ccccc3)nc2C)c1`, the Activity [1] was “inactive”, the MIC [5] was 670 µM (≈ 249 µg/mL) and the zone of inhibition at 1 µM [2] was 10 mm. For the same molecule, the Activity [3] was “inactive”, the MIC [6] was 330 µM (≈ 123 µg/mL) and the zone of inhibition at 1 µM [4] was 13 mm.

`Cc1nc(S(=O)(=O)c2ccccc2)cc(O)c1Sc1ccccc1` was tested, and the Activity [1] was “inactive”, the zone of inhibition at 1 µM [2] was 10 mm and the Activity [3] was “inactive”. The zone of inhibition at 1 µM [4] was 9 mm.

`Cc1ccc(Oc2c(O)cc(S(=O)(=O)c3ccc(C)cc3)nc2C)cc1` was tested, and the Activity [1] was “inactive”, the zone of inhibition at 1 µM [2] was 7 mm and the Activity [3] was “inactive”. The zone of inhibition at 1 µM [4] was 8 mm.

`Cc1ccc(S(=O)(=O)c2cc(O)c(Sc3ccccc3)c(C)n2)cc1` was tested, and the Activity [1] was “inactive”, the MIC [5] was 670 µM (≈ 249 µg/mL) and the zone of inhibition at 1 µM [2] was 10 mm. The Activity [3] was “inactive”, the MIC [6] was 340 µM (≈ 126 µg/mL) and the Activity [4] was “inactive”.

In the case of `CCc1c(O)cc(S(=O)(=O)c2ccccc2)nc1OC`, the Activity [1] was “inactive”, the Activity [2] was “inactive” and the Activity [3] was “inactive”. The Activity [4] was “inactive”.

With `COCc1cc(O)cc(S(=O)(=O)c2ccc(C)cc2)n1` the Activity [1] was “inactive”, the Activity [2] was “inactive” and the Activity [3] was “inactive”. The Activity [4] was “inactive”.

Molecule NYSTATIN has an inhibition zone (IZ) [3] of 28 mm.

`CC1(C)S[C@@H]2[C@H](NC(=O)[C@H](N)c3ccccc3)C(=O)N2[C@H]1C(=O)O` [AMPICILLIN] showed a zone of inhibition at 1 µM ([1]; ATCC 11229, 4 h, read-out: IZ) of 19 mm, an MIC [5] of 3 µM (≈ 1.05 µg/mL) and a zone of inhibition at 1 µM [2] of 25 mm. It also gave an MIC [6] of 11 µM (≈ 3.84 µg/mL) and a zone of inhibition at 1 µM [4] of 27 mm.

In the case of `CCOc1cc(O)cc(S(=O)(=O)c2ccc(C)cc2)n1`, the Activity [1] was “inactive”, the Activity [2] was “inactive” and the Activity [3] was “inactive”. For the same molecule, the Activity [4] was “inactive”.

With `Cc1ccc(Sc2c(O)cc(S(=O)(=O)c3ccc(C)cc3)nc2C)cc1` the Activity [1] was “inactive”, the MIC [5] was 320 µM (≈ 123 µg/mL) and the zone of inhibition at 1 µM [2] was 10 mm. The Activity [3] was “inactive”, the MIC [6] was 160 µM (≈ 61.7 µg/mL) and the zone of inhibition at 1 µM [4] was 8 mm.

For `COc1cc(O)cc(S(=O)(=O)c2ccc(C)cc2)n1`, the Activity [1] was “inactive”, the Activity [2] was “inactive” and the Activity [3] was “inactive”. For the same molecule, the zone of inhibition at 1 µM [4] was 10 mm.

For `Cc1ccc(S(=O)(=O)c2cc(O)c(Oc3cccc(C)c3)c(C)n2)cc1`, the Activity [1] was “inactive”, the Activity [2] was “inactive” and the Activity [3] was “inactive”. For the same molecule, the Activity [4] was “inactive”.

In the case of `CCOc1nc(S(=O)(=O)c2ccccc2)cc(O)c1Cl`, the Activity [1] was “inactive”, the MIC [5] was 1590 µM (≈ 499 µg/mL) and the zone of inhibition at 1 µM [2] was 11 mm. The Activity [3] was “inactive”, the MIC [6] was 1590 µM (≈ 499 µg/mL) and the zone of inhibition at 1 µM [4] was 12 mm.

`COCCOc1cc(O)cc(S(=O)(=O)c2ccc(C)cc2)n1` was tested, and the Activity [1] was “inactive”, the Activity [2] was “inactive” and the Activity [3] was “inactive”. The Activity [4] was “inactive”.

For `CCOc1nc(S(=O)(=O)c2ccccc2)cc(O)c1Oc1cc(C)cc(C)c1`, the Activity [1] was “inactive”, the Activity [2] was “inactive” and the Activity [3] was “inactive”. For the same molecule, the Activity [4] was “inactive”.

For `COc1cc(O)cc(S(=O)(=O)c2ccccc2)n1`, the Activity [1] was “inactive”, the Activity [2] was “inactive” and the Activity [3] was “inactive”. The Activity [4] was “inactive”.

`Cc1ccc(S(=O)(=O)c2cc(O)cc(C)n2)cc1` was tested, and the Activity [1] was “inactive”, the Activity [2] was “inactive” and the Activity [3] was “inactive”. The Activity [4] was “inactive”.
